Data set [1] relates to B16F10 cells. The experiment in a line: Cell morphology of melanoma cells (microscopy). The format is cell-based, murine. The following applies: 14-42 μg/ml, 24 hr, as-synthesized. How it is done: For cell morphology, the melanoma cells were seeded in cell culture plates (SPL Korea) and incubated at 37 °C (5% CO2 atmosphere). The cells were then incubated with the various concentrations of 4b and 6a (0 (con), 14, 21, 28, 35, and 42 μg/ml) following 24 hr incubation. The cell morphology was accessed and images were captured using an inverted fluorescent microscope (Nikon, ECLIPSE, Ti).

The target in data set [2] is mushroom tyrosinase (Agaricus bisporus, UniProt C7FF04). The experiment in a line: Circular dichroism analysis of the secondary structure of mushroom tyrosinase. The note with it: tyrosinase + as-synthesized compound (0 min plasma), 0.1 mM; for Turn % of tyrosinase: enzyme alone 7; for α-helix % of tyrosinase: enzyme alone 16; for β-sheet % of tyrosinase: enzyme alone 33; for Random coil % of tyrosinase: enzyme alone 44. How it is done:
The structural changes in tyrosinase after incubation with ED and PAED were plotted in Fig. 5. […] We observed that the control tyrosinase enzyme has 16% α-helix, 33% β-sheets, 7% turn, and 44% random coil. After the interaction with 4a, the amount of α-helix changed to 15% and β-sheets changed to 35%. On the other hand, after the plasma treatment of 4a the amount of α-helix changed to 17% and β-sheets changed to 31%. While, after interacting with 4b, the amount of α-helix is 16.0%, β-sheets 29%, turn 10%, and random coil is 45.0%. However, plasma-activated 4b interacts differently with tyrosinase enzyme, showing 16% α-helix, 33% β-sheets, 6% turn, and 45% random coil. When 6a ED interacted with tyrosinase enzyme, we observed 20% α-helix, 25% β-sheets, 11.0% turn, and 44% random coil. However, 6a PAED interacts with tyrosinase enzyme, the α-helix changed to 19%, β-sheets 28%, turn 9%, and random coil 44%. […] To obtain further detail on the interaction of the ED with tyrosinase enzyme, we studied the molecular docking. For the CD spectroscopic studies[65][66][67] a J-815 spectrophotometer (Jasco, Japan) was used, equipped with a Peltier system that controlled the temperature. (1S)-(+)-10-camphorsulfonic acid (Aldrich, Milwaukee, WI) with a molar extinction coefficient of 34.5 M/cm at 285 nm and a 2.36 M/cm molar ellipticity (θ) at 295 nm was used for the CD calibrations. The samples were pre-equilibrated at the desired temperature for 15 min, and the scan speed was fixed for adaptative sampling (error F 0.01) with a response time of 1 sec and a 1 nm bandwidth. The secondary structure of the mushroom tyrosinase was monitored by using a 1.0 cm path length cuvette. The mushroom tyrosinase (0.2 mg/ml) was prepared in phosphate buffer (20 mM) at pH 6.8 for CD analysis. We used the 0.1 mM concentration of all derivatives in 1 ml buffer solution, with or without 10 min plasma treatment. All spectra were collected in triplicate from 200 to 250 nm and the background was corrected against the buffer (blank). The percentages of secondary structures of proteins were calculated using inbuilt Jasco software.
(CD spectra are sensitive to the conformation of chiral molecules.)

Data set [3] concerns TRP1 expression in B16F10 cells. The experiment in a line: Western blot, TRP1 expression. It is filed as cell-based, murine. The note with it: 24 hr; for expression of TRP1 versus control: ED (as-synthesized); for expression of TRP1 versus ED: PAED (plasma-treated). On the procedure:
(§1) Melanoma cells were incubated with as-synthesized and plasma-treated 4b and 6a test compounds for 24 hr. Following incubation, treated and untreated cells were lysed in RIPA buffer (Cell Signaling Technology, USA), whole cell protein was extracted and subjected to electrophoresis in 12% SDS-PAGE, and blotted onto nitrocellulose membranes. The membrane was probed with the antibodies raised against MITF, tyrosinase and TRP1 (Abcam, USA). The bands were detected using Super Signal West Pico Chemiluminescent Substrate (Pierce, Rockford, IL, USA) and images were taken using a Vilver imaging system (Vilver, Upland, CA, USA).

The subject of data set [4] is MITF expression in B16F10 cells. The experiment in a line: Western blot, MITF expression. The format is cell-based, murine. The following applies: 24 hr; for expression of MITF versus control: ED (as-synthesized); for expression of MITF versus ED: PAED (plasma-treated). On the procedure: as §1
(In western blotting, separated proteins are transferred to a membrane and probed.)

Chain of mushroom tyrosinase (C7FF04 2-392): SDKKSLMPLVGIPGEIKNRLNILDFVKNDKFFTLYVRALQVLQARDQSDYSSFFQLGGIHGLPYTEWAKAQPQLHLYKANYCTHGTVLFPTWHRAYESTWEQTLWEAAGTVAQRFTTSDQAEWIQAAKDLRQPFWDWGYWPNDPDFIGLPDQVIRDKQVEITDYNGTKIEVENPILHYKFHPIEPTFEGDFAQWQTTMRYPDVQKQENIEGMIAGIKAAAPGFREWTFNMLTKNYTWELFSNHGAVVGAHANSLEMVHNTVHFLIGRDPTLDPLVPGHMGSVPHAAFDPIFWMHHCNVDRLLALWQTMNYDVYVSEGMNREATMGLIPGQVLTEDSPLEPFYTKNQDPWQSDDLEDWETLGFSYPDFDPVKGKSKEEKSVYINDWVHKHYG

Regarding `C=CCc1ccc(OC(=O)COC(=O)c2ccc(O)cc2)c(OC)c1` [4b, 2-[2-methoxy-4-(prop-2-en-1-yl)phenoxy]-2-oxoethyl 4-hydroxybenzoate], the melting point fell in the range of 81 to 83 °C. For the same molecule, in data set [1], the “effect on cell morphology” value is “no effect on cell morphology”. In addition, in data set [2], the “Turn % of tyrosinase” value was determined as 10%, the “α-helix % of tyrosinase” value amounted to 16.0%, the “β-sheet % of tyrosinase” value stood at 29% and the “Random coil % of tyrosinase” value came to 45.0%. For the same molecule, in data set [2] (listed as 4b-0 min), the “α-helix % of tyrosinase” value is 16% and the “Random coil % of tyrosinase” value is 45%. In data set [3], the “expression of TRP1 versus control” value is on record as “higher expression” and the “expression of TRP1 versus ED” value is recorded as “more expression”. Moreover, in data set [4], the “expression of MITF versus control” value was “higher expression” and the “expression of MITF versus ED” value is recorded as “more expression”.
Consider `C=CCc1ccc(OC(=O)COC(=O)/C=C/c2ccc(O)cc2)c(OC)c1` [6a, 2-[2-methoxy-4-(prop-2-en-1-yl)phenoxy]-2-oxoethyl(2E)-3-(4-hydroxyphenyl)prop-2-enoate], for which the melting point was 114 to 116 °C. Moreover, the “effect on cell morphology” value in data set [1] is “no effect on cell morphology”. In data set [2], the “Turn % of tyrosinase” value came out at 11.0%, the “α-helix % of tyrosinase” value is recorded as 20%, the “β-sheet % of tyrosinase” value is 25% and the “Random coil % of tyrosinase” value amounted to 44%. In addition, the “Turn % of tyrosinase” value in data set [2] (listed as 6a-0 min) was 11%. Besides, in data set [3], the “expression of TRP1 versus control” value is reported as “higher expression” and the “expression of TRP1 versus ED” value was “more expression”. Besides, in data set [4], the “expression of MITF versus control” value was “higher expression” and the “expression of MITF versus ED” value is recorded as “more expression”.

For orientation: melting point means the temperature, or range, at which the solid turns liquid.

Source of the values: PMC4773869, “Influence of plasma-activated compounds on melanogenesis and tyrosinase activity” (Scientific Reports, 2016).
